# From patent US20070225253A1, “Use of a trioxopyrimidine for the treatment and prevention of bronchial inflammatory diseases” (priority 2004, published 2007)
# Legend:
# Assay in all cases: MMP enzymatic activity, modified fluorescence assay (DNP-substrate)
# Format in all cases: biochemical
# Human MMP-14 = Human MMP-14 (Homo sapiens, UniProt P50281)
# Description: (§1) IC50 values are measured by an in vitro assay for MMP enzymatic activity. Such an assay is described by Stack, M. S., and Gray, R. D., J. Biol. Chem. 264 (1989) 4277-4281. This assay is based on the determination of MMP enzymatic activity on a dinitrophenol substrate and fluorescence measurement of the substrate after cleaving by MMPs.
# (§2) Inhibitors were tested in a modified fluorescence-assay as described by Stack, M. S., and Gray, R. D., J. Biol. Chem. 264 (1989) 4277-4281. Human MMP-1, MMP-2, MMP-3, MMP-9 and MMP-14 are commercially available (e.g. Calbiochem). The pro-enzymes were activated with 1 mM APMA (incubation for 30 min at 37° C.) immediately before testing. Activated enzyme is diluted to 100 ng/ml in incubation buffer (50 mM Tris, 100 mM NaCl, 10 mM CaCl2, pH 7.6). The compounds were dissolved in 100% DMSO. […] DNP-substrate (Bachem M1855, 255 μM) was dissolved in incubation buffer.
# (§3) The test tube contains 970 μl incubation buffer, 10 μl inhibitor solution and 10 μl enzyme solution. The reaction was started by adding the 10 μl substrate solution.
# (§4) Kinetics of activity were determined using excitation at 280 nm and emission at 346 nm measured on a FluoroMax™ (Spex Industries Inc., Edison, N.J., USA) over 120 sec. DMSO has been used as control instead of inhibitor solution.
# (§5) IC50's are defined as the concentration of inhibitor that gives a signal that is 50% of the positive enzyme control.
# Human MMP-9 = Human MMP-9 (Homo sapiens, UniProt P14780)
# Description: as §1, §2, §3, §4, §5
# Human MMP-2 = target: T1, Human MMP-2 (Homo sapiens, UniProt P08253)
# T1 sequence (P08253 110-660): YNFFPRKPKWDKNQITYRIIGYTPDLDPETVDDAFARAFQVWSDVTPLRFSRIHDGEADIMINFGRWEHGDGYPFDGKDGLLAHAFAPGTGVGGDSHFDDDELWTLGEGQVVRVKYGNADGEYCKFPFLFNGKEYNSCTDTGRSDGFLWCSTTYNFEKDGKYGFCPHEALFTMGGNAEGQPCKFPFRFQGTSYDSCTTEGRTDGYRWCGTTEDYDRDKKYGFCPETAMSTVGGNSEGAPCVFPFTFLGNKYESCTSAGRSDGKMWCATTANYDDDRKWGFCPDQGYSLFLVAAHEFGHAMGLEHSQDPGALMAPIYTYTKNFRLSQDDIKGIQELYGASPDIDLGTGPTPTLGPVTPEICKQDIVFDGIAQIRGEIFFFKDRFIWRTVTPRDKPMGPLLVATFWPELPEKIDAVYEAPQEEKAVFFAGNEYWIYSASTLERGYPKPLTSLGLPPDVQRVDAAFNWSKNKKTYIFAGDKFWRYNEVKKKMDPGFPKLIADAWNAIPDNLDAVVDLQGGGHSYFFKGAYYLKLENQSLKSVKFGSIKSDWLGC
# Description: (§6) IC50 values are measured by an in vitro assay for MMP enzymatic activity. […] This assay is based on the determination of MMP enzymatic activity on a dinitrophenol substrate and fluorescence measurement of the substrate after cleaving by MMPs.
# (§7) Human MMP-1, MMP-2, MMP-3, MMP-9 and MMP-14 are commercially available (e.g. Calbiochem). The pro-enzymes were activated with 1 mM APMA (incubation for 30 min at 37° C.) immediately before testing. Activated enzyme is diluted to 100 ng/ml in incubation buffer (50 mM Tris, 100 mM NaCl, 10 mM CaCl2, pH 7.6). The compounds were dissolved in 100% DMSO.
# as §3
# Human MMP-3 = Human MMP-3 (Homo sapiens, UniProt P08254)
# Description: as §6, §7, §3
# Human MMP-1 = target: T2, Human MMP-1 (Homo sapiens, UniProt P03956)
# T2 sequence (P03956 100-469): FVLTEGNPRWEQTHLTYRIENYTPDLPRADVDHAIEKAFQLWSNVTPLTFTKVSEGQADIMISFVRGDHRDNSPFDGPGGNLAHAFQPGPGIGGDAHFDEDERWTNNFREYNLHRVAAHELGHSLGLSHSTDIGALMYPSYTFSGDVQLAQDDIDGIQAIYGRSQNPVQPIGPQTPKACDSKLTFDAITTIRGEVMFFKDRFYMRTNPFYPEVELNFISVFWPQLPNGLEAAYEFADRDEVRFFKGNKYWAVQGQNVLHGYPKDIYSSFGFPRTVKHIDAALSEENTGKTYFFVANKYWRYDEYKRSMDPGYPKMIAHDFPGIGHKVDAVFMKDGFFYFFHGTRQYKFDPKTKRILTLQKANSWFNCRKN
# Description: as §6, §7, §3
# Sequence of Human MMP-9 (P14780 107-707 limits assumed): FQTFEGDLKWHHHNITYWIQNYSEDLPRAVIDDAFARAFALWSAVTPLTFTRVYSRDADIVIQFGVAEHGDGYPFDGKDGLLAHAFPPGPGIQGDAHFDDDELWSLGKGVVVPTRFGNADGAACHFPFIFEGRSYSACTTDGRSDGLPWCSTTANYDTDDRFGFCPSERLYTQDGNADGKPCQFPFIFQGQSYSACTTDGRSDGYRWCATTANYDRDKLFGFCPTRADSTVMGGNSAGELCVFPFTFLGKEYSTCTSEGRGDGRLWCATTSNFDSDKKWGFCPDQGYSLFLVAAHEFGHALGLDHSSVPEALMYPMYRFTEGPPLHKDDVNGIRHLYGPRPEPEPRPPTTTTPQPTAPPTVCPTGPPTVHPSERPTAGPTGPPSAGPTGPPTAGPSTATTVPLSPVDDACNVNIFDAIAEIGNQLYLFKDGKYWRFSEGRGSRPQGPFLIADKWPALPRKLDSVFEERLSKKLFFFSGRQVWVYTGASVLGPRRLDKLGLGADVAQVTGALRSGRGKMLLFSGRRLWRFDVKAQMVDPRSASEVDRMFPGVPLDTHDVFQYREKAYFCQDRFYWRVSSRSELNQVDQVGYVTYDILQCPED
# Sequence of Human MMP-3 (P08254 100-477): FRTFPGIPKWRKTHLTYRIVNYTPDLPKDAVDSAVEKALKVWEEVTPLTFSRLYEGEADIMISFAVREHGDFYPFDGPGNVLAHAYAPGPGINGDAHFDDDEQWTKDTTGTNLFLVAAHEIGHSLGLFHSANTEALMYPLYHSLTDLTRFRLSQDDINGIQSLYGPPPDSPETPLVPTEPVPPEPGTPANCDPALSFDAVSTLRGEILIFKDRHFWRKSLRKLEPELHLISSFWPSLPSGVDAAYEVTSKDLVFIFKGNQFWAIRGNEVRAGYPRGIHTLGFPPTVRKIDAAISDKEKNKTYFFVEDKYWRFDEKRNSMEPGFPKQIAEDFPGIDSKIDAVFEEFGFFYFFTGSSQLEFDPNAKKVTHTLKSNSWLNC
compound,measurement,setting,value
"O=C1NC(=O)C(c2ccc(-c3ccccc3)cc2)(N2CCN(c3ccc([N+](=O)[O-])cc3)CC2)C(=O)N1 [Compound I, 5-Biphenyl-4-yl-5-[4-(4-nitro-phenyl)-piperazin-1-yl]pyrimidine-2,4,6-trione]",IC50,Human MMP-14,1 nM
same,IC50,Human MMP-9,260 nM
same,IC50,Human MMP-2,65 nM
same,IC50,Human MMP-3,3500 nM
same,IC50,Human MMP-1,53000 nM
